Test results reported in patent publication US5061794A, “Cephalosporin derivatives, and antibacterial agents” (priority 1986, dated 1991).
Where two headings read alike, the source gives them in different places.

What was measured:
[1] = test system: E. coli CSH(RE45); test: microbe, parasite or virus in culture; format: cell-based; conditions: Escherichia coli, 16 h, read-out: Minimum Inhibitory Concentration (MIC), *E. coli CSH(RE45), lactamase-producing strain; 10^6 CFU/ml
Method in brief: (§1)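 Each organism, pre-grown overnight in Mueller Hinton broth, is inoculated at 10^6 CFU/ml onto Mueller Hinton agar series with increasing compound concentration; growth inhibition is scored after 16 h, 37° C., giving MIC (μg/ml).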

[2] = test system: E. coli CSH2 (RK1); test: microbe, parasite or virus in culture; format: cell-based; conditions: Escherichia coli, 16 h, read-out: Minimum Inhibitory Concentration (MIC), *E. coli CSH2 (RK1), lactamase-producing strain; 10^6 CFU/ml
Method in brief: as §1

[3] = test system: E. cloacae 963; test: in vitro antibacterial activity, agar plate dilution method (MIC); format: cell-based; conditions: 10^6 CFU/ml
Method in brief: as §1

[4] = test system: E. cloacae Nek 39; test: as above; format: cell-based; conditions: Enterobacter cloacae, NEK39, 16 h, read-out: Minimum Inhibitory Concentration (MIC), *E. cloacae Nek 39, lactamase-producing strain; 10^6 CFU/ml
Method in brief: as §1

[5] = test system: E. coli GN5482; test: as above; format: cell-based; conditions: Escherichia coli
Method in brief: as §1

[6] = test system: E. coli NIHJ JC2; test: as above; format: cell-based; conditions: Escherichia coli, NIHJJC2, 16 h, read-out: Minimum Inhibitory Concentration (MIC), E. coli NIHJ JC2, 10^6 CFU/ml, 37° C.
Method in brief: as §1

[7] = test system: K. oxytoca GN10650; test: as above; format: cell-based; conditions: Klebsiella oxytoca, 10^6 CFU/ml
Method in brief: as §1

[8] = test system: K. pneumoniae No. 42; test: as above; format: cell-based; conditions: Klebsiella pneumoniae, NO.42, 16 h, read-out: Minimum Inhibitory Concentration (MIC), *K. pneumoniae No. 42, lactamase-producing strain; 10^6 CFU/ml
Method in brief: as §1

[9] = test system: K. pneumoniae PCI-602; test: as above; format: cell-based; conditions: Klebsiella pneumoniae, PCI602, 16 h, 10^6 CFU/ml
Method in brief: as §1

[10] = test system: M. morganii GN5407; test: as above; format: cell-based; conditions: Morganella morganii, GN5407, 16 h, read-out: Minimum Inhibitory Concentration (MIC), *M. morganii GN5407, lactamase-producing strain; 10^6 CFU/ml
Method in brief: as §1

[11] = test system: P. vulgaris HX-19; test: as above; format: cell-based; conditions: Proteus vulgaris, HX19, 16 h, P. vulgaris HX-19; 10^6 CFU/ml; read-out: Minimum Inhibitory Concentration (MIC)
Method in brief: as §1

[12] = test system: P. vulgaris No. 33; test: as above; format: cell-based; conditions: Proteus vulgaris, NO.33, 16 h, read-out: Minimum Inhibitory Concentration (MIC), *P. vulgaris No. 33, lactamase-producing strain; 10^6 CFU/ml
Method in brief: as §1

[13] = test system: S. aureus 209P NIHJ-JC1; test: as above; format: cell-based; conditions: Staphylococcus aureus, 16 h, read-out: Minimum Inhibitory Concentration (MIC)
Method in brief: as §1

[14] = test system: S. marcescens IAM 1184; test: as above; format: cell-based; conditions: Serratia marcescens, IAM1184, 16 h, read-out: Minimum Inhibitory Concentration (MIC)
Method in brief: as §1

[15] = test system: S. marcescens No. 16-2; test: as above; format: cell-based; conditions: Serratia marcescens, NO.162, 16 h
Method in brief: as §1

[16] = test system: Ps. aeruginosa AK 109; test: as above; format: cell-based, Pseudomonas aeruginosa; conditions: Pseudomonas aeruginosa, AK109, 16 h, read-out: Minimum Inhibitory Concentration (MIC)
Method in brief: as §1

[17] = test system: Ps. aeruginosa AKR17; test: as above; format: cell-based, Pseudomonas aeruginosa; conditions: Pseudomonas aeruginosa, 10^6 CFU/ml
Method in brief: as §1

[18] = test system: Ps. aeruginosa IF03445; test: as above; format: cell-based, Pseudomonas aeruginosa; conditions: Pseudomonas aeruginosa, 10^6 CFU/ml
Method in brief: as §1

[19] = test system: Ps. cepacia 23; test: as above; format: cell-based, Pseudomonas cepacia; conditions: read-out: Minimum Inhibitory Concentration (MIC)
Method in brief: as §1

[20] = test system: A. calcoaceticus No. 4; test: as above; format: cell-based, Acinetobacter calcoaceticus; conditions: Acinetobacter calcoaceticus, NO.4, 16 h, A. calcoaceticus No. 4; 10^6 CFU/ml; read-out: Minimum Inhibitory Concentration (MIC)
Method in brief: as §1

[21] = GN10650, 16 h, read-out: Minimum Inhibitory Concentration (MIC), *K. oxytoca GN10650, lactamase-producing strain
[22] = read-out: Minimum Inhibitory Concentration (MIC), K. pneumoniae PCI-602
[23] = S. marcescens IAM 1184, 10^6 CFU/ml
[24] = 16 h, Ps. aeruginosa AKR17, read-out: Minimum Inhibitory Concentration (MIC)
[25] = IF03445, 16 h, read-out: Minimum Inhibitory Concentration (MIC), Ps. aeruginosa IF03445
[26] = Burkholderia cepacia, 16 h, Ps. cepacia 23, 10^6 CFU/ml
[27] = Enterobacter cloacae, 963, 16 h, read-out: Minimum Inhibitory Concentration (MIC), E. cloacae 963

| SMILES | MIC [1] | MIC [2] | MIC [4] | MIC [6] | MIC [7, 21] | MIC [8] | MIC [9, 22] | MIC [10] | MIC [11] | MIC [12] | MIC [13] | MIC [14, 23] | MIC [16] | MIC [17, 24] | MIC [18, 25] | MIC [19, 26] | MIC [20] | MIC [3, 27] | other results |
| --- | --- | --- | --- | --- | --- | --- | --- | --- | --- | --- | --- | --- | --- | --- | --- | --- | --- | --- | --- |
| Nc1nc(/C(=N/OCc2ccccc2)C(=O)N[C@@H]2C(=O)N3C(C(=O)O)=C(CSc4nnc(-c5ccc(O)c(O)c5)o4)CS[C@H]23)cs1 [Ex. 13, sodium 7β-[2-(2-aminothiazol-4-yl)-2-benzyloxyiminoacetamido]-3-[5-(3,4-dihydroxyphenvl)-1,3,4-oxadiazol-2-yl]thiomethyl-3-cephem-4-carboxylate] | 1.56 mg/L | < 0.006 mg/L | 0.1 mg/L | 0.1 mg/L | 0.39 mg/L | 0.05 mg/L | < 0.006 mg/L | 0.025 mg/L | < 0.006 mg/L | 0.025 mg/L | 0.39 mg/L | 0.0125 mg/L | 0.39 mg/L | 50 mg/L | 0.39 mg/L | 0.025 mg/L | 0.2 mg/L |  | MIC ([3]; Enterobacter cloacae, 16 h, E. cloacae 963, read-out: Minimum Inhibitory Concentration (MIC)): 0.0125 mg/L; MIC ([5]; GN5482, 16 h, read-out: Minimum Inhibitory Concentration (MIC)): 0.39 mg/L; MIC ([15]; read-out: Minimum Inhibitory Concentration (MIC)): 3.12 mg/L |
| CO/N=C(\C(=O)N[C@@H]1C(=O)N2C(C(=O)O)=C(CSc3nc(-c4ccc(OC(C)=O)cc4)c(CC(=O)O)s3)CS[C@H]12)c1csc(N)n1 [compound 18, disodium 3-[4-(4-acetoxyphenyl)-5-carboxylatemethylthiazol-2-yl]thiomethyl-7δ-[2-(2-aminothiazol-4-yl)-2-methoxyiminoacetamido]-3-cephem-4-carboxylate, reference compound] | 1.56 mg/L | 0.78 mg/L | 12.5 mg/L | 0.78 mg/L |  | 0.78 mg/L |  | 0.39 mg/L | < 0.006 mg/L | 0.1 mg/L |  |  |  | > 100 mg/L |  |  | 100 mg/L | 0.78 mg/L | MIC ([5]; 16 h, *E. coli GN5482, lactamase-producing strain, 10^6 CFU/ml, read-out: Minimum Inhibitory Concentration (MIC)): 3.12 mg/L; MIC ([7]; 16 h, *K. oxytoca GN10650, lactamase-producing strain, read-out: Minimum Inhibitory Concentration (MIC)): 25 mg/L; MIC ([9]; K. pneumoniae PCI-602, read-out: Minimum Inhibitory Concentration (MIC)): 0.2 mg/L; MIC ([13]; S. aureus 209P NIHJ-JC1, 10^6 CFU/ml, 37° C., 16 hours): 3.12 mg/L; MIC [14]: 0.78 mg/L; MIC ([15]; *S. marcescens No. 16-2, lactamase-producing strain, 10^6 CFU/ml, read-out: Minimum Inhibitory Concentration (MIC)): 100 mg/L; MIC ([16]; Ps. aeruginosa AK 109, 10^6 CFU/ml): > 100 mg/L; MIC ([18]; 16 h, Ps. aeruginosa IF03445, read-out: Minimum Inhibitory Concentration (MIC)): 100 mg/L; MIC ([19]; Burkholderia cepacia, 23, 16 h): 12.5 mg/L |
| Nc1nc(/C(=N/OC(C(=O)O)c2ccccc2)C(=O)N[C@@H]2C(=O)N3C(C(=O)O)=C(CSc4nnc(-c5ccc(O)c(O)c5)o4)CS[C@H]23)cs1 (stereo partly drawn) [Ex. 15, disodium 7δ-[2-(2-aminothiazol-4-yl)-2-(α-carboxylatebenzyloxyimino)acetamido]-3-[5-(3,4-dihydroxyphenyl)-1,3,4-oxadiazol-2-yl]thiomethyl-3-cephem-4-carboxylate] | 3.12 mg/L | < 0.006 mg/L | 0.05 mg/L | 0.1 mg/L | 0.0125 mg/L | 0.05 mg/L | < 0.006 mg/L | 0.05 mg/L | < 0.006 mg/L | 0.0125 mg/L | 12.5 mg/L | 0.025 mg/L | 0.39 mg/L |  | 0.78 mg/L | < 0.006 mg/L | 0.05 mg/L | 0.025 mg/L | MIC ([5]; GN5482, 16 h, read-out: Minimum Inhibitory Concentration (MIC), *E. coli GN5482, lactamase-producing strain, 10^6 CFU/ml): 1.56 mg/L; MIC ([15]; read-out: Minimum Inhibitory Concentration (MIC), *S. marcescens No. 16-2, lactamase-producing strain, 10^6 CFU/ml): 0.78 mg/L; MIC ([17]; AKR17, 16 h, read-out: Minimum Inhibitory Concentration (MIC), Ps. aeruginosa AKR17): 0.78 mg/L |
